From patent EP4332093A1, “SALT CONTAINING PIPERAZINE POLYCYCLIC DERIVATIVE, CRYSTAL FORM THEREOF, PREPARATION METHOD THEREFOR, AND USE THEREOF” (Shanghai Hansoh Biomedical Co., Ltd., priority 2021, dated 2022)

Legend:
[1] = target: 5-HT2A receptor (Homo sapiens, UniProt P28223); experiment: Radioligand binding assay, 5-HT2A receptor ([3H]-Ketanserin); design: purchased PerkinElmer; details: Human 5-HT2A Receptor membrane, [3H]-Ketanserin 2 nM; read-out: 5HT-2A Binding IC50
[2] = target: T1, dopamine D3 receptor (Homo sapiens, UniProt P35462); experiment: Radioligand binding assay, dopamine D3 receptor ([3H]-methylspiperone); details: Human Dopamine D3 Receptor membrane, [3H]-methylspiperone 0.5 nM
T1 construct: purchased PerkinElmer ES-173-M400UA

[3] = tested on: rats; experiment: Pharmacodynamic model of active escape experiment in rats; format: in vivo; details: F344 rats, oral, Dose 1 mg/kg, one hour before the test; Vehicle 91-98%
Method: To evaluate the anti-schizophrenic effect of the compounds using the pharmacodynamic model of the active escape experiment in rats.
A certain mass (such as 1.0 g) of CMC-Na was weighed into a glass bottle. A certain volume (such as 200 mL) of purified water was added. The resulting mixture was stirred to disperse evenly. 1% (v/v) Tween 80 was added according to the solution volume, and the resulting mixture was stirred overnight to obtain a homogeneous clear solution, which was stored at 2 to 8°C for later use.
A prescription amount of the compound was weighed, followed by the addition of a prescription volume of 0.5% CMC-Na+1% Tween 80 solution. […]
The actual sample amount needs to be calculated during the formulation and administration of the compound solution. […]
The current intensity was 0.6 mA and the duration was 10 seconds. […] This would be recorded as escape failures, and the single training ended; • 5.1.5 Each animal was trained 30 times a day for a total of 6 days, and returned to the cage after the training. • 5.2 Baseline test and grouping […]
The following data was collected by the software for data analysis: • Number of avoids of the animal; • Number of escape failures of the animal; • Escape latency of the animal; • All measurement data were expressed as mean ± standard error (Mean ± SEM), and analyzed by Graphpad 6 statistical software. […]

Chain of 5-HT2A receptor (P28223 whole entry): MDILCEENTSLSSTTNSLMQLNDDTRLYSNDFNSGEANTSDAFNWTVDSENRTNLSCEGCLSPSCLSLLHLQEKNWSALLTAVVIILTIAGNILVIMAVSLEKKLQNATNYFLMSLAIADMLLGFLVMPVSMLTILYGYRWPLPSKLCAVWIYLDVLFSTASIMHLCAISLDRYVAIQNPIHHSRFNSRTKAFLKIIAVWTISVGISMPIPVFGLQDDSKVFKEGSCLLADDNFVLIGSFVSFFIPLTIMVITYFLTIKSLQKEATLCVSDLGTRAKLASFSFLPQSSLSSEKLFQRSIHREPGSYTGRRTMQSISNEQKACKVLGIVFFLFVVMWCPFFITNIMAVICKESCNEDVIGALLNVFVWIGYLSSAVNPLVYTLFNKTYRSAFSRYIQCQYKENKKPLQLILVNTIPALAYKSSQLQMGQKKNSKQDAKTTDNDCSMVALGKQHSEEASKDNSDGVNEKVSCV
T1 sequence (P35462 whole entry): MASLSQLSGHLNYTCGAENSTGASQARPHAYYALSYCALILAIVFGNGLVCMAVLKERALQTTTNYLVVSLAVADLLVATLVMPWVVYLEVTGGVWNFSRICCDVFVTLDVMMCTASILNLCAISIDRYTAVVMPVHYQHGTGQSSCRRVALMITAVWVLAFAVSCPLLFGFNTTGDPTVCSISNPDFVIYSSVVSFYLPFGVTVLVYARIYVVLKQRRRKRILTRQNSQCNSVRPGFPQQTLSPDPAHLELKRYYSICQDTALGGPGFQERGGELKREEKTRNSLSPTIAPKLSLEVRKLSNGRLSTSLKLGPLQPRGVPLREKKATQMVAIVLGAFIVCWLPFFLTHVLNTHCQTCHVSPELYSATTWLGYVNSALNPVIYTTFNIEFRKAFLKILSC

SMILES | IC50 [1] | IC50 [2] | CAR value [3]
O=C(N[C@H]1C[C@H](CCN2CCN(c3cccc(Cl)c3Cl)CC2)C1)c1cccc2ncccc12 [Example 19A, N-(Trans-3-(2-(4-(2,3-dichlorophenyl)piperazin-1-yl)ethyl)cyclobutyl)quinoline-5-c arboxamide] | 1.89 nM | 0.4 nM | –
O=C(NC1CC(CCN2CCN(c3cccc(Cl)c3Cl)CC2)C1)c1ncco1 (stereo not drawn) [Example 12, N-(3-(2-(4-(2,3-Dichlorophenyl)piperazin-1-yl)ethyl)cyclobutyl)oxazole-2-carboxamide] | – | – | 30%
O=C(N[C@H]1C[C@H](CCN2CCN(c3cccc(Cl)c3Cl)CC2)C1)c1ncco1 [Example 12A, N-(Trans-3-(2-(4-(2,3-dichlorophenyl)piperazin-1-yl)ethyl)cyclobutyl)oxazole-2-car boxamide] | 4.19 nM | 0.37 nM | 18.5%

The next lines start with results.

IC50 [1] | IC50 [2] | SMILES | CAR value [3]
5.77 nM | 0.75 nM | O=C(N[C@H]1C[C@H](CCN2CCN(c3cccc(Cl)c3Cl)CC2)C1)C1(O)CC1 [Example 6A, N-(Trans-3-(2-(4-(2,3-dichlorophenyl)piperazin-1-yl)ethyl)cyclobutyl)-1-hydroxycy clopropane-1-carboxamide] | –
0.79 nM | 0.44 nM | O=C(N[C@H]1C[C@H](CCN2CCN(c3cccc(Cl)c3Cl)CC2)C1)c1nccs1 [Example 7A, N-(Trans-3-(2-(4-(2,3-dichlorophenyl)piperazin-1-yl)ethyl)cyclobutyl)thiazole-2-car boxamide] | –
8.73 nM | 2.54 nM | O=C(N[C@H]1C[C@@H](CCN2CCN(c3cccc(Cl)c3Cl)CC2)C1)c1ncco1 [Example 12B, N-(Cis-3-(2-(4-(2,3-dichlorophenyl)piperazin-1-yl)ethyl)cyclobutyl)oxazole-2-carbo xamide] | –
